Data: the supplement of paper PMC10307832

Key:
Test in all cases: relative viability (nuclei count vs DMSO), 5 days (fraction); higher = more cells survive
A549 = test system: A549
Method in brief: (§1)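 Each reported value is a median over duplicate plates. It expresses relative viability: treated-well nuclei count divided by vehicle-well nuclei count. Lung cancer cell lines in 1536-well plates were dosed by pin tool a day after seeding, alone with one drug or with a fixed anchor-drug dose plus five library-drug doses (not always all listed) in √10 steps, and nuclei were counted after 5 days.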

Calu-6 = test system: Calu-6
Method in brief: as §1

ChaGo-K-1 = test system: ChaGo-K-1
Method in brief: as §1

EBC-1 = test system: EBC-1
Method in brief: as §1

EKVX = test system: EKVX
Method in brief: as §1

IA-LM = test system: IA-LM
Method in brief: as §1

LC-2-ad = test system: LC-2-ad
Method in brief: as §1

NCI-H1299 = test system: NCI-H1299
Method in brief: as §1

NCI-H1648 = test system: NCI-H1648
Method in brief: as §1

NCI-H1666 = test system: NCI-H1666
Method in brief: as §1

NCI-H1703 = test system: NCI-H1703
Method in brief: as §1

Q: `CCNC(=O)c1noc(-c2cc(C(C)C)c(O)cc2O)c1-c1ccc(CN2CCOCC2)cc1` [Luminespib] + O=C(c1cc(Cc2n[nH]c(=O)c3ccccc23)ccc1F)N1CCN(C(=O)C2CC2)CC1 [Olaparib] (partner 8 µM) was tested. Which relative viability (A549; first compound 0.002 µM) did it give?
A: The relative viability was 0.282.

Q: And the relative viability (A549; first compound 0.006325 µM)?
A: The relative viability was 0.174.

Q: And the relative viability (A549; first compound 0.02 µM)?
A: Its relative viability is 0.194.

Q: And the relative viability (A549; first compound 0.06325 µM)?
A: Its relative viability is 0.0387.

Q: What about the relative viability (A549; first compound 0.2 µM) of the same molecule?
A: Its relative viability is 0.0323.

Q: And the relative viability (Calu-6; first compound 0.002 µM)?
A: Its relative viability is 0.652.

Q: And the relative viability (Calu-6; first compound 0.006325 µM)?
A: Its relative viability is 0.545.

Q: What about the relative viability (Calu-6; first compound 0.02 µM) of the same molecule?
A: Its relative viability is 0.696.

Q: What about the relative viability (Calu-6; first compound 0.06325 µM) of the same molecule?
A: Its relative viability is 0.111.

Q: What about the relative viability (Calu-6; first compound 0.2 µM) of the same molecule?
A: The relative viability was 0.098.

Q: And the relative viability (ChaGo-K-1; first compound 0.002 µM)?
A: The relative viability was 0.42.

Q: What about the relative viability (ChaGo-K-1; first compound 0.006325 µM) of the same molecule?
A: The relative viability was 0.407.

Q: And the relative viability (ChaGo-K-1; first compound 0.02 µM)?
A: The relative viability was 0.439.

Q: What about the relative viability (ChaGo-K-1; first compound 0.06325 µM) of the same molecule?
A: Its relative viability is 0.452.

Q: And the relative viability (ChaGo-K-1; first compound 0.2 µM)?
A: Its relative viability is 0.36.

Q: What about the relative viability (EBC-1; first compound 0.002 µM) of the same molecule?
A: The relative viability was 0.794.

Q: What about the relative viability (EBC-1; first compound 0.006325 µM) of the same molecule?
A: The relative viability was 0.586.

Q: And the relative viability (EBC-1; first compound 0.02 µM)?
A: The relative viability was 0.572.

Q: What about the relative viability (EBC-1; first compound 0.06325 µM) of the same molecule?
A: The relative viability was 0.122.

Q: And the relative viability (EBC-1; first compound 0.2 µM)?
A: The relative viability was 0.124.

Q: And the relative viability (EKVX; first compound 0.002 µM)?
A: The relative viability was 0.881.

Q: What about the relative viability (EKVX; first compound 0.006325 µM) of the same molecule?
A: The relative viability was 0.881.

Q: What about the relative viability (EKVX; first compound 0.02 µM) of the same molecule?
A: The relative viability was 0.651.

Q: What about the relative viability (EKVX; first compound 0.06325 µM) of the same molecule?
A: The relative viability was 0.541.

Q: And the relative viability (EKVX; first compound 0.2 µM)?
A: Its relative viability is 0.155.

Q: And the relative viability (IA-LM; first compound 0.002 µM)?
A: Its relative viability is 0.919.

Q: And the relative viability (IA-LM; first compound 0.006325 µM)?
A: The relative viability was 0.785.

Q: And the relative viability (IA-LM; first compound 0.02 µM)?
A: The relative viability was 0.816.

Q: And the relative viability (IA-LM; first compound 0.06325 µM)?
A: Its relative viability is 0.0533.

Q: And the relative viability (IA-LM; first compound 0.2 µM)?
A: Its relative viability is 0.0667.

Q: And the relative viability (LC-2-ad; first compound 0.002 µM)?
A: Its relative viability is 0.704.

Q: What about the relative viability (LC-2-ad; first compound 0.006325 µM) of the same molecule?
A: The relative viability was 0.713.

Q: What about the relative viability (LC-2-ad; first compound 0.02 µM) of the same molecule?
A: Its relative viability is 0.866.

Q: And the relative viability (LC-2-ad; first compound 0.06325 µM)?
A: The relative viability was 0.48.

Q: What about the relative viability (LC-2-ad; first compound 0.2 µM) of the same molecule?
A: The relative viability was 0.297.

Q: What about the relative viability (NCI-H1299; first compound 0.002 µM) of the same molecule?
A: The relative viability was 0.954.

Q: What about the relative viability (NCI-H1299; first compound 0.006325 µM) of the same molecule?
A: The relative viability was 0.921.

Q: What about the relative viability (NCI-H1299; first compound 0.02 µM) of the same molecule?
A: Its relative viability is 0.959.

Q: And the relative viability (NCI-H1299; first compound 0.06325 µM)?
A: Its relative viability is 0.467.

Q: What about the relative viability (NCI-H1299; first compound 0.2 µM) of the same molecule?
A: The relative viability was 0.147.

Q: What about the relative viability (NCI-H1648; first compound 0.002 µM) of the same molecule?
A: The relative viability was 0.765.

Q: And the relative viability (NCI-H1648; first compound 0.006325 µM)?
A: The relative viability was 0.653.

Q: What about the relative viability (NCI-H1648; first compound 0.02 µM) of the same molecule?
A: The relative viability was 0.784.

Q: And the relative viability (NCI-H1648; first compound 0.06325 µM)?
A: The relative viability was 0.505.

Q: What about the relative viability (NCI-H1648; first compound 0.2 µM) of the same molecule?
A: The relative viability was 0.484.

Q: And the relative viability (NCI-H1666; first compound 0.002 µM)?
A: The relative viability was 0.778.

Q: And the relative viability (NCI-H1666; first compound 0.006325 µM)?
A: The relative viability was 0.733.

Q: And the relative viability (NCI-H1666; first compound 0.02 µM)?
A: Its relative viability is 0.753.

Q: What about the relative viability (NCI-H1666; first compound 0.06325 µM) of the same molecule?
A: Its relative viability is 0.75.

Q: What about the relative viability (NCI-H1666; first compound 0.2 µM) of the same molecule?
A: Its relative viability is 0.716.

Q: And the relative viability (NCI-H1703; first compound 0.002 µM)?
A: Its relative viability is 0.401.

Q: And the relative viability (NCI-H1703; first compound 0.006325 µM)?
A: Its relative viability is 0.358.

Q: What about the relative viability (NCI-H1703; first compound 0.02 µM) of the same molecule?
A: The relative viability was 0.651.

Q: What about the relative viability (NCI-H1703; first compound 0.06325 µM) of the same molecule?
A: The relative viability was 0.127.

Q: And the relative viability (NCI-H1703; first compound 0.2 µM)?
A: Its relative viability is 0.104.

Q: Which results are given for `Cc1csc(=NC2CCCCC2)n1/N=C/c1ccc(O)c(O)c1O` [MIM1] + O=C(c1cc(Cc2n[nH]c(=O)c3ccccc23)ccc1F)N1CCN(C(=O)C2CC2)CC1 [Olaparib] (partner 8 µM)?
A: relative viability (A549; first compound 0.2 µM): 0.277; relative viability (A549; first compound 0.6325 µM): 0.282; relative viability (A549; first compound 2 µM): 0.304; relative viability (A549; first compound 6.325 µM): 0.181; relative viability (A549; first compound 20 µM): 0.0693; relative viability (Calu-6; first compound 0.6325 µM): 0.563; relative viability (Calu-6; first compound 2 µM): 0.614; relative viability (Calu-6; first compound 6.325 µM): 0.288; relative viability (Calu-6; first compound 20 µM): 0.152; relative viability (ChaGo-K-1; first compound 0.2 µM): 0.399; relative viability (ChaGo-K-1; first compound 0.6325 µM): 0.346; relative viability (ChaGo-K-1; first compound 2 µM): 0.385; relative viability (ChaGo-K-1; first compound 6.325 µM): 0.214; relative viability (ChaGo-K-1; first compound 20 µM): 0.127; relative viability (EBC-1; first compound 0.2 µM): 0.559; relative viability (EBC-1; first compound 0.6325 µM): 0.742; relative viability (EBC-1; first compound 2 µM): 0.673; relative viability (EBC-1; first compound 6.325 µM): 0.422; relative viability (EBC-1; first compound 20 µM): 0.338; relative viability (EKVX; first compound 0.2 µM): 0.776; relative viability (EKVX; first compound 0.6325 µM): 0.785; relative viability (EKVX; first compound 2 µM): 0.59; relative viability (EKVX; first compound 6.325 µM): 0.51; relative viability (EKVX; first compound 20 µM): 0.412; relative viability (IA-LM; first compound 0.2 µM): 0.947; relative viability (IA-LM; first compound 0.6325 µM): 0.854; relative viability (IA-LM; first compound 2 µM): 0.829; relative viability (IA-LM; first compound 6.325 µM): 0.518; relative viability (IA-LM; first compound 20 µM): 0.192; relative viability (LC-2-ad; first compound 0.2 µM): 0.616; relative viability (LC-2-ad; first compound 0.6325 µM): 0.683; relative viability (LC-2-ad; first compound 2 µM): 0.665; relative viability (LC-2-ad; first compound 6.325 µM): 0.303; relative viability (LC-2-ad; first compound 20 µM): 0.211; relative viability (NCI-H1299; first compound 0.2 µM): 0.942; relative viability (NCI-H1299; first compound 0.6325 µM): 0.954; relative viability (NCI-H1299; first compound 2 µM): 1.03; relative viability (NCI-H1299; first compound 6.325 µM): 0.928; relative viability (NCI-H1299; first compound 20 µM): 0.728; relative viability (NCI-H1648; first compound 0.2 µM): 1; relative viability (NCI-H1648; first compound 0.6325 µM): 1.03; relative viability (NCI-H1648; first compound 2 µM): 0.697; relative viability (NCI-H1648; first compound 6.325 µM): 0.611; relative viability (NCI-H1648; first compound 20 µM): 0.298; relative viability (NCI-H1666; first compound 0.2 µM): 0.71; relative viability (NCI-H1666; first compound 0.6325 µM): 0.739; relative viability (NCI-H1666; first compound 2 µM): 0.665; relative viability (NCI-H1666; first compound 6.325 µM): 0.72; relative viability (NCI-H1666; first compound 20 µM): 0.707; relative viability (NCI-H1703; first compound 0.2 µM): 0.54; relative viability (NCI-H1703; first compound 0.6325 µM): 0.738; relative viability (NCI-H1703; first compound 2 µM): 0.509; relative viability (NCI-H1703; first compound 6.325 µM): 0.369; relative viability (NCI-H1703; first compound 20 µM): 0.0913
